For orientation: pIC50 means the negative decadic logarithm of the IC50, by convention in mol/L. A high value points to a small IC50.

Data set [1] has as its system K562/Adr. Nature of the data set: Antiproliferative activity against human K562/ADR cells after 72 hrs by CCK8 assay. The class given is functional, cell-based. In general terms: Tetrazolium assays rely on reduction of a dye to a coloured formazan, in cell work by metabolically active cells.
Data set [2] has as its target T1, Mitogen-activated protein kinase; ERK1/ERK2 (Homo sapiens) (UniProt P27361+P28482). The data set is described as follows: Activation of ERK1/2 signalling in human K562/ADR cells assessed as suppression of CyclinB1 protein expression at 0.1 uM after 48 hrs by Western blot analysis relative to control. The class given is cell-based. On the technique in general: A western blot detects proteins with antibodies after separation by electrophoresis.

In data set [3] the target is T1, Mitogen-activated protein kinase; ERK1/ERK2 (Homo sapiens). Nature of the data set: Activation of ERK1/2 signalling in human K562/ADR cells assessed as increase in cleaved caspase-9 expression at 0.1 uM after 48 hrs in presence of ERK1/2 inhibitor U0126 by Western blot analysis relative to control. The format is cell-based.
Data set [4] has the same target. Nature of the data set: Activation of ERK1/2 signalling in human K562/ADR cells assessed as suppression of CyclinB1 protein expression at 0.05 uM after 48 hrs by Western blot analysis relative to control. The class given is cell-based.
For data set [5], the system named is K562/Adr. The data set is described as follows: Induction of apoptosis in human K562/ADR cells assessed as early apoptotic cells at 0.05 uM after 48 hrs by Annexin V-APC/7-AAD staining based flow cytometry (reference value: 1.99%). The format is functional. On the technique in general: In flow cytometry, cells or beads pass a laser one at a time.
The target in data set [6] is T1, Mitogen-activated protein kinase; ERK1/ERK2 (Homo sapiens). The data set is described as follows: Activation of ERK1/2 signalling in human K562/ADR cells assessed as suppression of CDK1 protein expression at 0.1 uM after 48 hrs in presence of ERK1/2 inhibitor U0126 by Western blot analysis relative to control. The format is cell-based.
Data set [7] has as its system K562/Adr. The data set is described as follows: Induction of apoptosis in human K562/ADR cells assessed as chromatin condensation at 0.05 to 0.1 uM after 48 hrs by Hoechst 33342 staining based fluorescent microscopic analysis. The class given is functional, cell-based.
Data set [8] deals with T1, Mitogen-activated protein kinase; ERK1/ERK2 (Homo sapiens). The data set is described as follows: Activation of ERK1/2 signalling in human K562/ADR cells assessed as increase in cleaved caspase-8 expression at 0.05 uM after 48 hrs by Western blot analysis relative to control. The class given is cell-based.
Data set [9] has as its system K562/Adr. Nature of the data set: Effect on total ERK1/2 protein expression level in human K562/ADR cells at 0.1 uM after 48 hrs in presence of ERK1/2 inhibitor U0126 by Western blot analysis relative to control. The class given is ADME, cell-based.

pIC50: −log10 of the molar value. Calls of active or inactive are those of the source. The rule behind the calls is not given here.

T1 sequence (P27361 whole entry, looked up): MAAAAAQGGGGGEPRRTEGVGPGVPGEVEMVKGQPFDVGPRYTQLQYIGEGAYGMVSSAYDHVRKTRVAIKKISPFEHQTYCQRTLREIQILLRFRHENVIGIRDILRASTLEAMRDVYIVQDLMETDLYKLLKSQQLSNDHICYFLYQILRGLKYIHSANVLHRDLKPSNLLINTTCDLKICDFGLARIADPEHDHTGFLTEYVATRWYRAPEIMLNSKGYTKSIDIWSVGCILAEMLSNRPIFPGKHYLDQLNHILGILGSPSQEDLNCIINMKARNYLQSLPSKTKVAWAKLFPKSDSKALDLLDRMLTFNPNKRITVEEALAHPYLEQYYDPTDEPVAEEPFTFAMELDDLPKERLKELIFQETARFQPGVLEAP
T1 sequence (P28482 whole entry, looked up): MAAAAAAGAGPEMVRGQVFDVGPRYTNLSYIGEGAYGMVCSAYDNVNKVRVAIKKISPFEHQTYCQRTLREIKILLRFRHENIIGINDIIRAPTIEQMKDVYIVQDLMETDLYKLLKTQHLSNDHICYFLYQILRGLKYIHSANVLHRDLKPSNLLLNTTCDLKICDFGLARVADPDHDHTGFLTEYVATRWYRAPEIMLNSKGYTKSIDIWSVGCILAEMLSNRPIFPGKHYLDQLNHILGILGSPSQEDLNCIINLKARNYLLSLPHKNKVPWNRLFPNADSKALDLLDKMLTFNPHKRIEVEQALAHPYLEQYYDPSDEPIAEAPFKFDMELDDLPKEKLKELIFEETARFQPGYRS

As for `COc1cc([C@@H]2c3cc4c(cc3[C@H](OC(=O)c3cccc(Br)n3)[C@H]3COC(=O)[C@H]23)OCO4)cc(OC)c1OC`, the pIC50 in the data set with K562/Adr [1] was 7.34. The fold change (FC) in data set [2] was found to be 0.15; in data set [3] it was 0.59; in [4], 0.25; in data set [6], 0.71; in data set [8], 0.38; in the data set on K562/Adr [9], 0.65. For the same compound, the Activity in the data set on K562/Adr [5] was determined as 7.42%. Moreover, the result in the data set on K562/Adr [7] was Active.

Source of the values: ChEMBL document CHEMBL4477261, “Design, synthesis and evaluation of the multidrug resistance-reversing activity of pyridine acid esters of podophyllotoxin in human leukemia cells” (Bioorg Med Chem Lett, 2016).
